Data reported in patent US20250042879A1, “HETEROCYCLIC SUBSTITUTED 1,3,4-THIADIAZOLE AND PYRIDAZINE COMPOUNDS AND METHODS OF USING THE SAME” (Rgenta Therapeutics, Inc., priority 2021, published 2025).
Where a name gives a salt, the structure may show the parent alone.

The compounds below were run on HTT (assay: Mini-gene reporter assay-HTT (firefly luciferase, exon inclusion)). Settings: HTT Minigene, 5 μM; read-out: % Efficacy at 5 μM.
Format: cell-based
Method in brief: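 HEK293 cells transiently transfected with a pcDNA3.1 mini-gene carrying the alternatively skipped exon with flanking introns and exons fused to firefly luciferase were incubated with compound, in duplicate. Exon inclusion raises luciferase luminescence. EC50 came from Levenberg-Marquardt curve fitting.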
With COc1cc(-c2ccc(-c3ccc(C4CN(C5CCC(C#N)CC5)C4)nn3)c(O)c2)cc2cn(C)nc12 (stereo not shown) [Compound 164] the Emax at 5 µM was > 750%. With Cc1cn2cc(-c3ccc(-c4ccc(C5CN(Cc6cc[nH]c6)C5)nn4)c(O)c3)cc(F)c2n1 [Compound 98] the Emax at 5 µM was > 750%. Cc1cn2cc(-c3ccc(-c4ccc(C5CN(C6CCSC6)C5)nn4)c(O)c3)cc(F)c2n1 (stereo not shown) [Compound 70] was tested, and the Emax at 5 µM was 25 to 75%. In the case of Cc1cn2cc(-c3ccc(-c4ccc(C5CN(Cc6cnn(C)c6)C5)nn4)c(O)c3)cc(F)c2n1 [Compound 71], the Emax at 5 µM is reported as > 750%. In the case of Cc1cn2cc(-c3ccc(-c4ccc(C5CN(C(C)Cc6cnn(C)c6)C5)nn4)c(O)c3)cc(F)c2n1 (stereo not shown) [Compound 106], the Emax at 5 µM is reported as > 750%. For CCCC(CN1CC(c2ccc(-c3ccc(-c4cc(OC)c5nn(C)cc5c4)cc3O)nn2)C1)OC (stereo not shown) [Compound 176], the Emax at 5 µM was 25 to 75%. For COc1cc(-c2ccc(-c3ccc(C4CN(C(C)C5CCCCO5)C4)nn3)c(O)c2)cc2cn(C)nc12 (stereo not shown) [Compound 187], the Emax at 5 µM was 25 to 75%. In the case of Cc1cn2cc(-c3ccc(-c4ccc(C5CN(CC6CC6C)C5)nn4)c(O)c3)cc(F)c2n1 (stereo not shown) [Compound 105], the Emax at 5 µM is reported as > 750%. COc1cc(-c2ccc(-c3ccc(C4CN(CC(C)CCC#N)C4)nn3)c(O)c2)cc2cn(C)nc12 (stereo not shown) [Compound 169] was tested, and the Emax at 5 µM was > 750%. CCN1CCC(N2CC(c3ccc(-c4ccc(-c5cc(OC)c6nn(C)cc6c5)cc4O)nn3)C2)CC1 [Compound 132] was tested, and the Emax at 5 µM was < 25%. For COc1cc(-c2ccc(-c3ccc(C4CN(Cc5cc6n(n5)CCC6)C4)nn3)c(O)c2)cc2cn(C)nc12 [Compound 184], the Emax at 5 µM was 25 to 75%. With COc1cc(-c2ccc(-c3ccc(C4CN(C(C)C5CCC5)C4)nn3)c(O)c2)cc2cn(C)nc12 (stereo not shown) [Compound 157] the Emax at 5 µM was > 750%. Compound COc1cc(-c2ccc(-c3ccc(C4CN(C5CCOC(C)(C)C5)C4)nn3)c(O)c2)cc2cn(C)nc12 (stereo not shown) [Compound 146] has an Emax at 5 µM of 25 to 75%. For Cc1cn2cc(-c3ccc(-c4ccc(C5CN(CC6(C)COC6)C5)nn4)c(O)c3)cc(F)c2n1 [Compound 110], the Emax at 5 µM was 25 to 75%. CCCn1cc(CN2CC(c3ccc(-c4ccc(-c5cc(F)c6nc(C)cn6c5)cc4O)nn3)C2)cn1 [Compound 91] gave an Emax at 5 µM of 25 to 75%. With Cc1cn2cc(-c3ccc(-c4ccc(C5CN(C(C)C6CCCCO6)C5)nn4)c(O)c3)cc(F)c2n1 (stereo not shown) [Compound 122] the Emax at 5 µM was 25 to 75%. Compound Cc1cn2cc(-c3ccc(-c4ccc(C5CN(Cc6cocn6)C5)nn4)c(O)c3)cc(F)c2n1 [Compound 101] has an Emax at 5 µM of 25 to 75%. For COc1cc(-c2ccc(-c3ccc(C4CN(CCC5CCOCC5)C4)nn3)c(O)c2)cc2cn(C)nc12 [Compound 168], the Emax at 5 µM was > 750%. With COc1cc(-c2ccc(-c3ccc(C4CN(Cc5ccccn5)C4)nn3)c(O)c2)cc2cn(C)nc12 [Compound 129] the Emax at 5 µM was < 25%. COc1cc(-c2ccc(-c3ccc(C4CN(Cc5cnc(C)o5)C4)nn3)c(O)c2)cc2cn(C)nc12 [Compound 162] gave an Emax at 5 µM of 25 to 75%. With COc1cc(-c2ccc(-c3ccc(C4CN(C5CCN(C6CC6)CC5)C4)nn3)c(O)c2)cc2cn(C)nc12 [Compound 134] the Emax at 5 µM was < 25%. With Cc1cn2cc(-c3ccc(-c4ccc(C5CN(Cc6c[nH]nc6C)C5)nn4)c(O)c3)cc(F)c2n1 [Compound 73] the Emax at 5 µM was > 750%. Cc1cn2cc(-c3ccc(-c4ccc(C5CN(CC6CCCOC6)C5)nn4)c(O)c3)cc(F)c2n1 (stereo not shown) [Compound 88] gave an Emax at 5 µM of 25 to 75%. In the case of Cc1cn2cc(-c3ccc(-c4ccc(C5CN(C6CCc7cn[nH]c7C6)C5)nn4)c(O)c3)cc(F)c2n1 (stereo not shown) [Compound 128], the Emax at 5 µM is reported as 25 to 75%. In the case of COc1cc(-c2ccc(-c3ccc(C4CN(Cc5cc(C6CC6)[nH]n5)C4)nn3)c(O)c2)cc2cn(C)nc12 [Compound 161], the Emax at 5 µM is reported as 25 to 75%. In the case of Cc1cn2cc(-c3ccc(-c4ccc(C5CN(C6COC(C)C6)C5)nn4)c(O)c3)cc(F)c2n1 (stereo not shown) [Compound 119], the Emax at 5 µM is reported as 25 to 75%. Cc1cn2cc(-c3ccc(-c4ccc(C5CN(Cc6ccn(C)n6)C5)nn4)c(O)c3)cc(F)c2n1 [Compound 80] gave an Emax at 5 µM of 25 to 75%.

Same assay, conditions: Homo sapiens; HTT mini-gene firefly luciferase reporter transiently transfected into HEK293 cells
For Cc1cc2cc(-c3ccc(-c4ccc(C5CNC5)nn4)c(O)c3)ccn2n1 [Compound 13, 2-[6-(azetidin-3-yl)pyridazin-3-yl]-5-{2-methylpyrazolo[1,5-a]pyridin-5-yl}phenol], the EC50 was ≥ 1000 nM. In the case of Cc1cn2cc(-c3ccc(-c4ccc(C5CNC5)nn4)c(O)c3)nc(C)c2n1 [Compound 9, 2-[6-(azetidin-3-yl)pyridazin-3-yl]-5-{2,8-dimethylimidazo[1,2-a]pyrazin-6-yl}phenol], the EC50 is reported as 50 to 500 nM. In the case of CCc1cc(-c2ccc(-c3ccc(C4CN(CC)C4)nn3)c(O)c2)nc2cn(C)nc12 [Compound 60, 5-{7-ethyl-2-methyl-2H-pyrazolo[4,3-b]pyridin-5-yl}-2-[6-(1-ethylazetidin-3-yl)pyridazin-3-yl]phenol], the EC50 is reported as ≥ 1000 nM. In the case of CCOc1cc(-c2ccc(-c3ccc(C4CN(CC)C4)nn3)c(O)c2)cc2cn(C)nc12 [Compound 56, 5-(7-ethoxy-2-methyl-2H-indazol-5-yl)-2-[6-(1-ethylazetidin-3-yl)pyridazin-3-yl]phenol], the EC50 is reported as 500 to 1000 nM. Cn1cc2cc(-c3ccc(-c4ccc(C5CN(C6CCOC6)C5)nn4)c(O)c3)ccc2n1 (stereo not shown) [Compound 45, 5-(2-methyl-2H-indazol-5-yl)-2-{6-[1-(oxolan-3-yl)azetidin-3-yl]pyridazin-3-yl}phenol] showed an EC50 of 500 to 1000 nM. CCN1CC(c2ccc(-c3ccc(-c4cc5cn(C)nc5c(O)n4)cc3O)nn2)C1 [Compound 53, 5-{4-[6-(1-ethylazetidin-3-yl)pyridazin-3-yl]-3-hydroxyphenyl}-2-methyl-2H-pyrazolo[3,4-c]pyridin-7-ol] gave an EC50 of 500 to 1000 nM. Compound COc1cc(-c2ccc(-c3ccc(C4CN(C5CCOCC5)C4)nn3)c(O)c2)cc2cn(C)nc12 [Compound 49, 5-(7-methoxy-2-methyl-2H-indazol-5-yl)-2-{6-[1-(oxan-4-yl)azetidin-3-yl]pyridazin-3-yl}phenol] has an EC50 of 500 to 1000 nM. CCN1CC(c2ccc(-c3ccc(-c4cc(C)n5nc(C)cc5c4)cc3O)nn2)C1 [Compound 41, 5-{2,7-dimethylpyrazolo[1,5-a]pyridin-5-yl}-2-[6-(1-ethylazetidin-3-yl)pyridazin-3-yl]phenol] was tested, and the EC50 was ≥ 1000 nM. CCN1CC(c2ccc(-c3ccc(-c4ccc5nn(C)cc5c4)cc3O)nn2)C1 [Compound 24, 2-[6-(1-ethylazetidin-3-yl)pyridazin-3-yl]-5-(2-methyl-2H-indazol-5-yl)phenol] gave an EC50 of 50 to 500 nM. With Cc1cn2cc(-c3ccc(-c4ccc(C5CNC5)nn4)c(O)c3)cc(F)c2n1 [Compound 1, 2-(6-(azetidin-3-yl)pyridazin-3-yl)-5-(8-fluoro-2-methylimidazo[1,2-a]pyridin-6-yl)phenol] the EC50 was 50 to 500 nM. For Cc1cn2cc(-c3ccc(-c4ccc(C5CNC5)nn4)c(O)c3)cc(C)c2n1 [Compound 4, 2-(6-(azetidin-3-yl)pyridazin-3-yl)-5-(2,8-dimethylimidazo[1,2-a]pyridin-6-yl)phenol hydrochloride], the EC50 was ≥ 1000 nM. Work on Cc1cn2cc(-c3cc(O)c(-c4ccc(C5CNC5)nn4)c(F)c3)cc(F)c2n1 [Compound 11, 2-[6-(azetidin-3-yl)pyridazin-3-yl]-3-fluoro-5-{8-fluoro-2-methylimidazo[1,2-a]pyridin-6-yl}phenol] yielded an EC50 of 500 to 1000 nM. With Cc1cn2cc(-c3ccc(-c4ccc(C5CN(C)C5)nn4)c(O)c3)ccc2n1 [Compound 14, 2-[6-(1-methylazetidin-3-yl)pyridazin-3-yl]-5-{2-methylimidazo[1,2-a]pyridin-6-yl}phenol] the EC50 was 500 to 1000 nM.
